Assay results published in patent publication US8404738B2 (Hoffmann-La Roche Inc., priority 2011, dated 2013).

Tests used:
HDAC6 = molecular target: T1, HDAC6 (Homo sapiens, UniProt Q9UBN7); test: Tubulin acetylation cytoblot assay (A549 cells); type: cell-based; conditions: 17-18 h incubation, tubulin acetylation as marker of HDAC6 inhibition, read-out: Tub-Ac EC50
T1 construct: endogenous in cells; host or cells: A549 cells
T1 sequence (Q9UBN7 1-1215): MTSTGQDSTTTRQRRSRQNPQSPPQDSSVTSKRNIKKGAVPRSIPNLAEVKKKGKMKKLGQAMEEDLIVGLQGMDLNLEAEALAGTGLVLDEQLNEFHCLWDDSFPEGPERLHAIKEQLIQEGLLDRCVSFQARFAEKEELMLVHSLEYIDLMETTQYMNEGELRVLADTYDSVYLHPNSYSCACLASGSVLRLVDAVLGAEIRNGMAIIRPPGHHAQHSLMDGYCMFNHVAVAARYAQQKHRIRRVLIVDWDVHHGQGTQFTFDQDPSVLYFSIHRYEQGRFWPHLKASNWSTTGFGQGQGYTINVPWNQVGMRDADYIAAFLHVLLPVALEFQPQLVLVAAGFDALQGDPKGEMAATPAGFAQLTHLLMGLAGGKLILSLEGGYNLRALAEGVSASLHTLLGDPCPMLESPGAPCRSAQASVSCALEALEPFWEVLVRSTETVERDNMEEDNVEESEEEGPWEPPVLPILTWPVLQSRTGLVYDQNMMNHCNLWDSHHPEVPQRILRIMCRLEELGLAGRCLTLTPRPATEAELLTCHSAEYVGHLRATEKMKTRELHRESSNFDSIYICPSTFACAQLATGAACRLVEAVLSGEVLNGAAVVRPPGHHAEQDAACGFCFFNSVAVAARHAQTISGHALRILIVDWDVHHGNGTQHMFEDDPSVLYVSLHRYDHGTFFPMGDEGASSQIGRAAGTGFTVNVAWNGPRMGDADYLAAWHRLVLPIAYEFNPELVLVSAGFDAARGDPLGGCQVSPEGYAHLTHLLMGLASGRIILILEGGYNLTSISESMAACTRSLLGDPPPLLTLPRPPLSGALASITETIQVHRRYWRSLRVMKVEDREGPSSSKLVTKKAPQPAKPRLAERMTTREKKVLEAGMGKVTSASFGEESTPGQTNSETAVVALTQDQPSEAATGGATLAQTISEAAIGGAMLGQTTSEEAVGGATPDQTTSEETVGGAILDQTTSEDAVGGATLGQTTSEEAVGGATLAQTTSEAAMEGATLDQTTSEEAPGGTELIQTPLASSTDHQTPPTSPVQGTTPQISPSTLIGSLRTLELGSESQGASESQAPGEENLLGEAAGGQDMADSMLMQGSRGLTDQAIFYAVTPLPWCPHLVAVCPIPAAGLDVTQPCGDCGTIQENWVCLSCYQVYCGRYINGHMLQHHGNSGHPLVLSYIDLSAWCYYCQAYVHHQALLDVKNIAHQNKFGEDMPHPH
Summary of the method: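 Cells were exposed to compound for 17-18 h, then fixed with formaldehyde and permeabilized with cold MeOH. They were probed for 4 h at 4° C with anti-acetylated tubulin plus HRP anti-mouse IgG (each 1:750), and read by ECL luminescence. EC50 values came from curves normalized to top and bottom controls.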

recombinant human HDAC8 = molecular target: T2, recombinant human HDAC8 (Homo sapiens, UniProt Q9BY41); test: HDAC8 inhibition: recombinant HDAC8 fluorometric assay; type: biochemical; conditions: recombinant human HDAC8, substrate Ac-Arg-His-Lys-Lys(ε-acetyl)-AMC; read-out: HDAC8 IC50
T2 construct: made in house; host or cells: insect cells
T2 sequence (Q9BY41 1-377): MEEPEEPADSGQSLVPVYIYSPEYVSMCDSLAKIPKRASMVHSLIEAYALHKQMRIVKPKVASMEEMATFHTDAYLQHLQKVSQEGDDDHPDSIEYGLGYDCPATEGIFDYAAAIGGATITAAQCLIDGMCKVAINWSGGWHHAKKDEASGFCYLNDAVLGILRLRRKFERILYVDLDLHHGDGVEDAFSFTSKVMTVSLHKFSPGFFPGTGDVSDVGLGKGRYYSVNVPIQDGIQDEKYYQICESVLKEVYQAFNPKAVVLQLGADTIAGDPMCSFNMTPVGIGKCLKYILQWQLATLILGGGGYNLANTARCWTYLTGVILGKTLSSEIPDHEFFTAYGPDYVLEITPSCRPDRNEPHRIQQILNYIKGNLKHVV
Summary of the method: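 Recombinant human HDAC8 from insect cells was preincubated with compound for 15 min at rt, then given Ac-Arg-His-Lys-Lys(ε-acetyl)-AMC substrate for 30 min at rt. IC50 came from normalized percent inhibition with curve fitting.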

[1] = test system: p21 promoter-luciferase construct; test: p21 reporter gene induction (HeLa cells, p21 promoter-luciferase construct); conditions: for p21 RP3: relative gene level of p21 compared to MS275 at 3 μM; for p21 RP10: relative level of p21 compared to MS275 at 10 μM; for p21 RP30: relative level of p21 compared to MS275 at 30 μM;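 as to all read-outs here: transfected HeLa cells exposed to compound for 15 h, luciferase luminescence read from lysates, p21 promoter lacks p53 site, proxy for cellular HDAC1/2/3 inhibition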

Structure (SMILES)	EC50 (HDAC6)	IC50 (recombinant human HDAC8)	p21 RP3 [1]	p21 RP10 [1]	p21 RP30 [1]
O=C(NO)c1ccc(NC2CCN(c3ccc4ccccc4c3)C2=O)cc1 (stereo not drawn) [Example 38, N-Hydroxy-4-(1-naphthalen-2-yl-2-oxo-pyrrolidin-3-ylamino)-benzamide]	1060 nM	1500 nM	0.50	0.02	−0.02
O=C(NO)c1ccc(NC2CCN(c3cccc4cccnc34)C2=O)cc1 (stereo not drawn) [Example 39, N-Hydroxy-4-(2-oxo-1-quinolin-8-yl-pyrrolidin-3-ylamino)-benzamide]	13100 nM	570 nM	0.29	0.09	0.20
O=C(NO)c1ccc(NC2CCN(c3cccc4ncccc34)C2=O)cc1 (stereo not drawn) [Example 40, N-Hydroxy-4-(2-oxo-1-quinolin-5-yl-pyrrolidin-3-ylamino)-benzamide]	1310 nM	510 nM	0.25	0.26	0.21
O=C(NO)c1ccc(NC2CCN(C3CCCCC3)C2=O)cc1 (stereo not drawn) [Example 41, 4-(1-Cyclohexyl-2-oxo-pyrrolidin-3-ylamino)-N-hydroxy-benzamide]	5150 nM	840 nM	0.05	0.02	0.02
O=C(NO)c1ccc(NC2CCN(Cc3ccccc3)C2=O)cc1 (stereo not drawn) [Example 42]	11400 nM	650 nM	0.02	0.09	0.34
C[C@H](c1ccccc1)N1CCC(Nc2ccc(C(=O)NO)cc2)C1=O (stereo partly drawn) [Example 44]	6310 nM	700 nM	−0.10	0.03	0.10
C[C@H](c1ccccc1)N1CCC(Nc2ccc(C(=O)NO)cc2)C1=O (stereo partly drawn) [Example 45]	8300 nM	650 nM	−0.19	0.02	0.13
CC(C)(c1ccccc1Cl)N1CCC(Nc2ccc(C(=O)NO)cc2)C1=O (stereo not drawn) [Example 48, 4-{1-[1-(2-Chloro-phenyl)-1-methyl-ethyl]-2-oxo-pyrrolidin-3-ylamino}-N-hydroxy-benzamide]	4600 nM	680 nM	0.24	0.08	0.23
CC(C)(c1cccc(Cl)c1)N1CCC(Nc2ccc(C(=O)NO)cc2)C1=O (stereo not drawn) [Example 49, 4-{1-[1-(3-Chloro-phenyl)-1-methyl-ethyl]-2-oxo-pyrrolidin-3-ylamino}-N-hydroxy-benzamide]	9860 nM	490 nM	0.41	0.50	0.85
CC(C)(c1ccc(Cl)cc1)N1CCC(Nc2ccc(C(=O)NO)cc2)C1=O (stereo not drawn) [Example 50, 4-{1-[1-(4-Chloro-phenyl)-1-methyl-ethyl]-2-oxo-pyrrolidin-3-ylamino}-N-hydroxy-benzamide]	8620 nM	670 nM	0.17	0.17	0.53
CC(C)(c1ccc(-c2ccccc2)cc1)N1CCC(Nc2ccc(C(=O)NO)cc2)C1=O (stereo not drawn) [Example 51, 4-[1-(1-Biphenyl-4-yl-1-methyl-ethyl)-2-oxo-pyrrolidin-3-ylamino]-N-hydroxy-benzamide]	8990 nM	910 nM	−0.14	0.60	0.38
CC(C)(c1cccc2ccccc12)N1CCC(Nc2ccc(C(=O)NO)cc2)C1=O (stereo not drawn) [Example 52, N-Hydroxy-4-[1-(1-methyl-1-naphthalen-1-yl-ethyl)-2-oxo-pyrrolidin-3-ylamino]-benzamide]	2820 nM	1050 nM	0.14	0.53	0.58
CC(C)(c1ccc2ccccc2c1)N1CCC(Nc2ccc(C(=O)NO)cc2)C1=O (stereo not drawn) [Example 53, N-Hydroxy-4-[1-(1-methyl-1-naphthalen-2-yl-ethyl)-2-oxo-pyrrolidin-3-ylamino]-benzamide]	3320 nM	380 nM	2.37	1.21	0.13
O=C(NO)c1ccc(NC2CCN(C3(c4ccccc4)CCCC3)C2=O)cc1 (stereo not drawn) [Example 55, N-Hydroxy-4-[2-oxo-1-(1-phenyl-cyclopentyl)-pyrrolidin-3-ylamino]-benzamide]	4750 nM	820 nM	0.43	0.20	0.50
O=C(NO)c1ccc(NC2CCN(C3(c4ccccc4)CCCCC3)C2=O)cc1 (stereo not drawn) [Example 56, N-Hydroxy-4-[2-oxo-1-(1-phenyl-cyclohexyl)-pyrrolidin-3-ylamino]-benzamide]	2820 nM	1110 nM	0.37	0.07	0.14
CC1(Nc2ccc(C(=O)NO)cc2)CCN(c2ccccc2)C1=O (stereo not drawn) [Example 57, N-Hydroxy-4-(3-methyl-2-oxo-1-phenyl-pyrrolidin-3-ylamino)-benzamide]	2640 nM	2970 nM	0.05	0.03	0.01
CC1(Nc2ccc(C(=O)NO)cc2)CCN(c2cccc(F)c2)C1=O (stereo not drawn) [Example 58, 4-[1-(3-Fluoro-phenyl)-3-methyl-2-oxo-pyrrolidin-3-ylamino]-N-hydroxy-benzamide]	1000 nM	910 nM	0.50	0.13	0.07
CC1(Nc2ccc(C(=O)NO)cc2)CCN(c2cccc(Cl)c2)C1=O (stereo not drawn) [Example 59, 4-[1-(3-Chloro-phenyl)-3-methyl-2-oxo-pyrrolidin-3-ylamino]-N-hydroxy-benzamide]	300 nM	160 nM	0.23	0.22	0.24
CC1(Nc2ccc(C(=O)NO)cc2)CCN(c2cnc3ccccc3c2)C1=O (stereo not drawn) [Example 61, N-Hydroxy-4-(3-methyl-2-oxo-1-quinolin-3-yl-pyrrolidin-3-ylamino)-benzamide]	8250 nM	1420 nM	0.46	0.09	0.17
CC1(Nc2ccc(C(=O)NO)cc2)CCN(c2cccc3cccnc23)C1=O (stereo not drawn) [Example 62, N-Hydroxy-4-(3-methyl-2-oxo-1-quinolin-8-yl-pyrrolidin-3-ylamino)-benzamide]	1930 nM	710 nM	0.55	0.11	0.20
CC1(Nc2ccc(C(=O)NO)cc2)CCN(c2ccc3ncccc3c2)C1=O (stereo not drawn) [Example 63, N-Hydroxy-4-(3-methyl-2-oxo-1-quinolin-6-yl-pyrrolidin-3-ylamino)-benzamide]	360 nM	890 nM	0.47	0.15	0.22
